This is an account of results in patent US11040958B2, “Triazole antimicrobial derivative, pharmaceutical composition and use thereof” (priority 2017, dated 2021).

Data set [1] in a line: Solubility test in deionized water (HPLC, external calibration). Format: physicochemical. The settings on record: deionized water, 25±2°C. As to the method:
Experimental condition: 25±2° C.
Dissolving medium: deionized water
Experimental method: 1 mg voriconazole and appropriate amount of each compound were weighed, placed in 1 ml deionized water separately, shaken vigorously for 30 s every 5 mins for 30 mins.

The nature of data set [2]: In vitro metabolic stability in human plasma. It counts as in vitro ADME. The settings on record: 37°C, compound 10 μM. How it is done: The two reaction systems were set up three samples in parallel, while each sample was taken in an amount of 100 μL at 1 min, 2 mins, 5 mins, 15 mins, and 30 mins after the reaction, added to the centrifuge tube containing 400 μL of 0° C. pre-cooled internal standard working fluid and terminated the reaction. The sample was mixed by vortex for 1 min, centrifuged at 10,000×g for 10 mins in a 4° C. pre-cooled high-speed centrifuge. The supernatant was taken for HPLC detection.

The nature of data set [3]: In vitro metabolic stability in human intestinal S9. It counts as in vitro ADME. The settings on record: 37°C, S9 1 mg/mL, compound 10 μM, NADPH regeneration system. As to the method: (§1) The two reaction systems were set up three samples in parallel, while each sample was taken in an amount of 100 μL at 1 min, 2 mins, 5 mins, 15 mins, and 30 mins after the reaction, added to the centrifuge tube containing 400 μL of 0° C. pre-cooled internal standard working fluid and terminated the reaction. The sample was mixed by vortex for 1 min, centrifuged at 10,000×g for 10 mins in a 4° C. pre-cooled high-speed centrifuge. The supernatant was taken for HPLC detection. […] Concentration of mother liquor of compounds: 1 mM […] [table]

The nature of data set [4]: In vitro metabolic stability in rat plasma. The settings on record: 37°C, compound 10 μM. Format: in vitro ADME. As to the method:
The two reaction systems were set up three samples in parallel, while each sample was taken in an amount of 100 μL at 1 min, 2 mins, 5 mins, 15 mins, and 30 mins after the reaction, added to the centrifuge tube containing 400 μL of 0° C. pre-cooled internal standard working fluid and terminated the reaction. The sample was mixed by vortex for 1 min, centrifuged at 10,000×g for 10 mins in a 4° C. pre-cooled high-speed centrifuge. The supernatant was taken for HPLC detection. […] Concentration of mother liquor of compounds: 1 mM […]

A short description of data set [5]: In vitro metabolic stability in rat intestinal S9. It counts as in vitro ADME. To be noted: 37°C, S9 1 mg/mL, compound 10 μM, NADPH regeneration system. How it is done: as §1
A short description of data set [6]: Pharmacokinetics after single intravenous administration in rats (plasma voriconazole). The settings on record: rat, in vivo, 2.5 mg/kg. How it is done: Dosage for administration: 2.5 mg/kg (calculated as voriconazole)
Dosing volume for administration: 2.5 ml/kg
Drug concentration: 1 mg/mL (calculated as voriconazole)
Route of administration: tail vein injection Experimental animals: SD rats, SPF grade, weighing 180-220 g, half male and half female; the SD rats were randomized into groups of 6 animals each, three males and three females in each group. Experimental method: Blood samples were collected at different time points after tail vein administration, and the plasma concentrations of voriconazole were measured.

A short description of data set [7]: Pharmacokinetics after single gastrointestinal (gavage) administration in rats (plasma voriconazole). Format: in vivo. The settings on record: SD rats, 2.5 mg/kg (calculated as voriconazole). As to the method:
Dosing volume for administration: 10 ml/kg
Solvent medium for administration: except for the positive voriconazole group using CMC-Na, the other groups using normal saline
Route of administration: gavage

In data set [8] the test system is Candida albicans ATCC10231. The experiment in a line: Systemic fungal infection in mice, intravenous administration, survival. Format: in vivo. To be noted: ICR mice, tail vein, 5 mg/kg (calculated as voriconazole) once daily for 5 days. How it is done: (§2) ICR mice, weighing 18-22 g, male, provided by the Hubei Experimental Animal Center.
(§3) The standard strain Candida albicans was purchased from the American Type Culture Collection, and the strain number was ATCC10231.
Before the experiment, a small amount of Candida albicans was picked from the SDA medium preserved at 4° C. by inoculation circle, and inoculated into 1 ml YPD (Yeast Extract Peptone Dextrose Medium, the same below) culture medium, under shake cultivation at 30° C., 200 rpm, activated for 16 hours to make the fungus in the late stage of the exponential growth phase. Blood cell counting plate was used to count. The concentration of the broth was adjusted to 1*10^3-5*10^3 CFU/ml with RPMI1640 (Roswell Park Memorial Institute 1640, the same below) culture medium. The Candida albicans monoclone on the SDA plate was picked and inoculated into 1 ml YPD medium, cultured at 35° C., 200 rpm for 16 hours to the late exponential growth phase, 1% of which was then inoculated in fresh medium for 6 hours, centrifuged at 1000×g for 5 mins, washed three times with saline until the supernatant was colorless, while hemocytometer was used to count. The cell concentration was adjusted to 5*10^6/ml. The tail vein injection of 0.1 ml/10 g was carried out to cause a systemic fungal infection in mice. The mice were randomized into groups of 10 each. Since voriconazole was insoluble in vehicle (physiological saline), the mice of the voriconazole group in the test were injected a commercially available voriconazole (Pfizer, product lot number Z467001), that is, sulfobutyl ether-β-cyclodextrin used as a solubilizer, while other groups used physiological saline as a solvent. After establishing a systemic fungal infection model in mice for 2 hours, each administration group was administered with 5 mg/kg (calculated as voriconazole) drug in the tail vein, with the volume for administration of 0.1 ml/10 g. The mice in the model group were administered 0.1 ml/10 g of 0.9% sodium chloride solution, once daily, for 5 consecutive days. The death situation of the mice was inspected and the survival time was recorded. After a total of 7 days of observation, all dead mice were treated with fire using ethanol.

In data set [9] the test system is Candida albicans ATCC10231. The experiment in a line: Systemic fungal infection in mice, administration by gavage, survival. Format: in vivo. The settings on record: ICR mice, 5 mg/kg (calculated as voriconazole) once daily for 5 days. How it is done:
as §2, §3
Before the experiment, a small amount of Candida albicans was picked from the SDA medium preserved at 4° C. by inoculation circle, inoculated into 1 ml of YPD culture medium, and cultured at 30° C. while being shaken at 200 rpm for 16 hours to make the fungus in the late stage of exponential growth. Blood cell counting plate was used to count, and the concentration of the broth was adjusted to 1*10^3−5*10^3 CFU/ml with RPMI1640 medium. The Candida albicans monoclone on the SDA plate was picked, inoculated into 1 ml YPD medium, cultured at 35° C., 200 rpm for 16 hours to the late exponential growth phase, 1% of which was then inoculated in fresh medium for 6 hours, centrifuged at 1000×g for 5 mins, washed three times with saline until the supernatant was colorless, while hemocytometer was used to count. The cell concentration was adjusted to 5*10^6/ml. The tail vein injection of 0.1 ml/10 g was carried out to cause a systemic fungal infection in mice. The mice were randomized into groups of 10 each. Voriconazole used was in the form of a suspension prepared with CMC-Na (Shanghai Panhong Chemical Technology Co., Ltd.), while other tested drugs were dissolved in saline and sonicated until clarified for administration. After establishing a systemic fungal infection model in mice for 2 hours, each group was administered by gavage with 5 mg/kg (calculated as voriconazole) drug, with the volume for administration of 0.1 ml/10 g. The mice in the model group were administered 0.1 ml/10 g of 0.9% sodium chloride solution, once daily, for 5 consecutive days. The death situation of the mice was inspected and the survival time was recorded. After a total of 7 days of observation, all dead mice were treated with fire using ethanol.

With `CC(OC(=O)N(C)c1ncccc1COC(=O)CN)[n+]1cnn(C[C@](O)(c2ccc(F)cc2F)[C@@H](C)c2ncncc2F)c1.[Cl-]` (stereo partly drawn) [QR16001], the Solubility in data set [1] was >50 mg/mL. In addition, in data set [2], the “Human plasma T1/2” value amounted to 1.56 ± 0.26 min. In data set [3], the “Human intestinal S9 T1/2” value is given as 10.09 ± 1.75 min. Besides, the “Rat plasma T1/2” value in data set [4] amounted to 1.23 ± 0.45 min. In data set [5], the “Rat intestinal S9 T1/2” value turned out to be 10.15 ± 2.65 min. Further, in [6], the AUClast was 10515 ± 1985 ng·h/mL and the T1/2 turned out to be 128 ± 58.8 min. Moreover, in data set [7], the AUClast was 8562 ± 1125 ng·h/mL, the maximum concentration (Cmax) is listed as 789 ± 362 ng/mL and the T1/2 was 193 ± 76.8 min. For the same molecule, in data set [8], the “survival rate of mice, day 1” value is given as 100%; the “survival rate of mice, day 2” value is 100%; the “survival rate of mice, day 3” value is given as 100%; the “survival rate of mice, day 4” value is recorded as 100%. In data set [8], the “survival rate of mice, day 5” value was 100% and the “survival rate of mice, day 6” value is on record as 100%. Besides, in [9], the “survival rate of mice, day 1” value is recorded as 100%; the “survival rate of mice, day 2” value is 100%; the “survival rate of mice, day 3” value is 100%; the “survival rate of mice, day 4” value was 100%. In data set [9], the “survival rate of mice, day 5” value is reported as 90%; the “survival rate of mice, day 6” value is 80%; the “survival rate of mice, day 7” value is recorded as 80%.

Turning to `CC(OC(=O)N(C)c1ncccc1COC(=O)C(N)CO)[n+]1cnn(CC(O)(c2ccc(F)cc2F)C(C)c2ncncc2F)c1.Cl.Cl.[Cl-]` (stereo not drawn) [QR16015], the Solubility in data set [1] is >50 mg/mL. In addition, the “Human plasma T1/2” value in data set [2] was found to be 2.05 ± 0.26 min. Also, the “Human intestinal S9 T1/2” value in data set [3] is on record as 12.72 ± 1.72 min. Also, the “Rat plasma T1/2” value in data set [4] is given as 1.58 ± 0.95 min. The “Rat intestinal S9 T1/2” value in data set [5] was determined as 15.95 ± 4.96 min. Also, in [6], the AUClast is 10526 ± 2695 ng·h/mL and the T1/2 came out at 171 ± 107 min. In [7], the AUClast is 8144 ± 1468 ng·h/mL, the Cmax was 996 ± 365 ng/mL and the T1/2 was 167 ± 73.8 min. Further, in data set [8], the “survival rate of mice, day 1” value is reported as 100%; the “survival rate of mice, day 2” value is given as 100%; the “survival rate of mice, day 3” value is reported as 100%; the “survival rate of mice, day 4” value is 100%. In [8], the “survival rate of mice, day 5” value is given as 100% and the “survival rate of mice, day 6” value is 90%. In data set [9], the “survival rate of mice, day 1” value is on record as 100%; the “survival rate of mice, day 2” value is 100%; the “survival rate of mice, day 3” value is 100%; the “survival rate of mice, day 4” value is reported as 100%. Further, in [9], the “survival rate of mice, day 5” value was 100%; the “survival rate of mice, day 6” value is recorded as 80%; the “survival rate of mice, day 7” value is 80%.

`CC(O)C(N)C(=O)OCc1cccnc1N(C)C(=O)OC(C)[n+]1cnn(CC(O)(c2ccc(F)cc2F)C(C)c2ncncc2F)c1.Cl.Cl.[Cl-]` (stereo not drawn) [QR16016]: the Solubility in data set [1] is listed as >50 mg/mL. The “Human plasma T1/2” value in data set [2] is on record as 2.12 ± 1.07 min. Moreover, the “Human intestinal S9 T1/2” value in [3] is on record as 15.72 ± 0.98 min. The “Rat plasma T1/2” value in [4] was 1.95 ± 0.87 min. Further, the “Rat intestinal S9 T1/2” value in [5] is given as 19.62 ± 3.69 min. Further, in data set [6], the AUClast turned out to be 10477 ± 1854 ng·h/mL and the T1/2 is 159 ± 52.8 min. Besides, in [7], the AUClast was 8332 ± 3254 ng·h/mL, the peak concentration (Cmax) was 885 ± 344 ng/mL and the T1/2 is 134 ± 75 min. For the same molecule, in data set [8], the “survival rate of mice, day 1” value is listed as 100%; the “survival rate of mice, day 2” value is recorded as 100%; the “survival rate of mice, day 3” value is reported as 100%; the “survival rate of mice, day 4” value is 100%. In addition, in data set [8], the “survival rate of mice, day 5” value is given as 100% and the “survival rate of mice, day 6” value was 90%. Further, in [9], the “survival rate of mice, day 1” value is given as 100%; the “survival rate of mice, day 2” value is on record as 100%; the “survival rate of mice, day 3” value is 90%; the “survival rate of mice, day 4” value is on record as 90%. Further, in data set [9], the “survival rate of mice, day 5” value is on record as 90%; the “survival rate of mice, day 6” value is reported as 90%; the “survival rate of mice, day 7” value is reported as 80%.

Turning to `CC(OC(=O)N(C)c1ncccc1CN)[n+]1cnn(C[C@](O)(c2ccc(F)cc2F)[C@@H](C)c2ncncc2F)c1` (stereo partly drawn) [QR16022], in data set [1] (25 °C, thermodynamic from solid), the solubility at 30 min was > 50 mg/mL. The half-life at 10 µM was 26 ± 2.39 min in data set [2] (human, plasma, read-out: Human plasma T1/2); 43.2 ± 1.03 min in [3] (human, intestinal S9, read-out: Human intestinal S9 T1/2); 29.5 ± 7.85 min in [4] (rat, plasma, read-out: Rat plasma T1/2); 56 ± 10.3 min in [5] (rat, intestinal S9, pH 7.4, read-out: Rat intestinal S9 T1/2). The T1/2 entry in data set [6] was “similar”.

For orientation: Solubility means how much of the substance goes into solution per volume. A low value points to a poorly soluble substance. Usually Cmax stands for the peak of the concentration-time curve. One may read the solubility as the concentration that dissolves in the medium under given conditions. Higher therefore signals much dissolved substance.
